“Also recorded” adds a separate entry of the source.
How the values were obtained:
[1] = tested on: soybean cot-node explants; assay: GUS transient expression on soybean cot-node explants after 5-day co-cultivation with Agrobacterium (T-DNA delivery); format: cell-based, Glycine max
Description: For each seedling, the roots and the majority of the hypocotyl were removed approximately 3-5 mm below the cotyledonary node by cutting the hypocotyl with a scalpel (Hinchee et al., 1998). The two cotyledons were then separated by cutting vertically through the hypocotyl region resulting in two explants. The epicotyl was subsequently removed on both explants, including all primary leaves and shoot meristems, and both the axillary bud and cotyledonary node were wounded by cutting about 10 times with a scalpel blade perpendicular to the hypocotyl. After all explants in a set were wounded (about 50), they were placed in a 25×100 mm petri plate containing 50 ml co-culture suspension for 30 minutes or inoculated into the 25 ml co-cultivation/Agrobacterium suspension for 30 minutes. The explants were then cultured on an agar-solidified co-culture media (0.5%) either without the addition of a test agent (e.g., cysteine) in 15×100 mm petri plates on top a sterile Whatman®#1 filter paper; five explants per plate with adaxial side down. Five plates were stacked together and wrapped in Parafilm®M then incubated at either 22° C. or 25° C. for 5 days in the dark.
After 5 days, the explants were washed in a liquid shoot induction media (B5 salts, MSIII iron stock, 3% sucrose, 3 mM MES, and filter sterilized B5 vitamins, 1.67 mg/l BAP, 100 mg/l cefotaxime, and 500 mg/l ticarcillin; pH 5.6) to remove excess Agrobacterium. Seven to ten explants from each cysteine level were washed in liquid shoot induction medium and placed in GUS histochemical stain (Jefferson et al., 1987). These explants were scored for GUS transient expression. Five to ten explants from each group were imbedded into a single 25×100 mm petri plate with solid shoot induction media (0.8% agar and agent, e.g., 400 mg/l cysteine) containing PPT concentrations of 1.33 mg/l, 3.33 mg/l, or 5.0 mg/l for selection. The plates were then incubated in a growth chamber with a fluctuating temperature between 18° C.-30° C. under a 18 hours light/6 hours dark cycle at 90-150 μE/m^2s.
The level of infection was scored using the GUS gene as a phenotypic marker immediately after co-culture and again after 4 weeks in shoot induction media. As it can be difficult to score the explants after co-cultivation due to the variation among explants and, in some cases, a complete staining of the target tissues, 6 categories were formed to assess the success of infection: • 4) None=There were no GUS positive sectors on any of the explants; • 5) Very low=Not all explants have GUS positive sectors, however, some have discrete foci usually seen on the hypocotyl or cot-node region. • 6) Low=More than ¾ the explants have GUS positive sectors in discrete foci on the hypocotyl and the cot-node region, but the foci are not numerous (<20). • 7) Medium=More than ½ the explants have significant GUS positive sectors at the cot-node region and hypocotyl, some seen as long lines of cells or larger sectors. • 8) Good=More than ¾ the explants have significant staining at the hypocotyl, the entire cot-node region, and on the cotyledons. […] Almost all explants have regions that are completely GUS positive. To reduce bias, samples were chosen at random and the level of infection scored before noting the treatment conditions. Samples that were between two categories are marked accordingly; those samples that resembled one category more than another were marked with a capital “X” and the other with a lowercase “x”.
Wounded soybean cot-node explants prepared from the cultivar ‘Bert’ were co-cultivated with Agrobacterium on solid co-cultivation medium containing various levels of cysteine for 5 days.

[2] = tested on: soybean cot-node explants; assay: as above; format: cell-based, Glycine max; remark: listed apart in the source

In the case of N[C@@H](CS)C(=O)O [L-cysteine], the “infection, cysteine in solid co-culture media (experiments #4-#6)” value ([1]; 0 or 400 mg/l cysteine in liquid and solid co-culture media) is reported as “increased infection”, the “average frequency of explants containing a GUS+ focus at the cot-node” value ([1]; 300 to 1000 mg/l cysteine in solid co-cultivation medium, Bert, AGL1 pBSF16, 5 days, 30% with no cysteine) is reported as about 100% and the “GUS staining scores, difference from 0 mg/l cysteine” value ([1]; 400 and 1000 mg/l cysteine, α=0.05 (P<0.001)) is reported as “significantly differ”. The “frequency of explants with at least one GUS+ focus, difference from 0 mg/l cysteine” value ([1]; 400 and 1000 mg/l cysteine, α=0.05 (P<0.001), FIG. 1D) was “significantly differ”, the “frequency of explants with GUS+ foci at the cot-node, all genotypes” value ([1]; 5 days co-cultivation, MN0901, A3237, MN1801, MN0301, Granite, MN1401, MN1301, Lambert) was “increase” and the “GUS+ staining after co-cultivation” value ([1]; Bert, LBA4404 pTOK233, agent in solid co-cultivation media, concentrations of Table 1, 5-day incubation) was “increases”. The “infection (% of explants) at the entire cot-node region” value ([1]; after 5-day incubation, cysteine containing solid co-culture media (100-400 mg/l L-cysteine), genotypes Bert, MN1301, MN0901, 50% of control explants) was 80-100%, the “GUS+ foci at the 5-day interval” value ([1]; amended to solid co-cultivation media) was “increase” and the “number of GUS+ foci per explant five days post-inoculation” value ([1]; cysteine 400-1000 mg/l, eight independent experiments) was “increase”. The “frequency of GUS positive sectors/foci with strain LBA4404 pTOK233” value ([1]; cysteine during co-cultivation vs control, 5 days) was “exceed in the frequency of GUS positive sectors over the control explants; also recorded: greater”, the “GUS positive sectors after co-cultivation (experiments #1-#3)” value ([1]; cysteine, especially 300 and 400 mg/l, MN1301, MN0901, Bert) was “extensive GUS positive sectors” and the “frequency of explants with at least one GUS+ focus at the cot-node” value ([1]; five days post-inoculation, cysteine 400-1000 mg/l, eight independent experiments, 30% without) was 100%. For the same molecule, the “infection in genotypes that respond poorly to the cot-node method” value ([2]; 400 mg/l cysteine, MN1401, Granite, Lambert, MN1801, MN0301) was “significant increase in infection” and the “GUS+ foci on 5 day explants, cysteine only in liquid media” value ([2]; cysteine added only to liquid Agrobacterium culture (YEP) or liquid co-cultivation medium) was “did not increase; also recorded: no increases detected”.
